The values below come from US4622342A, “Secondary amines” (priority 1981, dated 1986).

Test [1] deals with blood glucose. In words: Anti-hyperglycaemic activity (blood glucose after subcutaneous glucose in fasted mice). It is filed as in vivo, Female CFLP mice. Conditions: Mus musculus, read-out: Reduction in area under blood glucose curve. How it is done:
Female CFLP mice, each weighing approximately 25 g were fasted for 24 hours prior to the study. The compounds under study were administered orally as an aqueous solution to each of 6 mice. 6 mice were given water as a control. 30 minutes later a blood sample (20 μl ) was obtained from the tail for the analysis of blood glucose. Immediately after taking this blood sample, glucose (1 g/kg body weight) was administered subcutaneously to each mouse. Blood samples were then obtained from each mouse at 30 minute intervals for 120 minutes.
Compounds that produced a significant (P<0.05) reduction of blood glucose, compared with control mice given water, at any time interval, were considered active. The area under the blood glucose curve over the 2 hour period after the adminstration of the glucose was calculated for each compound and compared with the value for control animals.

Test [2] concerns Rat hearts. In words: Cardiac activity, rat hearts perfused by the Langendorff procedure. As to the method: Rat hearts were perfused by the Langendorff procedure as follows:
Hearts were dissected free within 30 seconds of death and reverse perfused via the aorta and coronary vessels with Krebs-Ringer bicarbonate solution (pH 7.4, 37° C.) gassed with 95% oxygen:5% carbon dioxide at a flow rate between 8-12 cm^3 /minute. Responses were observed after injection of drug dissolved in isotonic saline into the perfusion media.
Results are expressed as a percentage of the maximum response due to salbutamol.

In test [3] the test system is platelet aggregation. In words: Platelet aggregation inhibition activity (collagen-induced fall in platelet count, oral dosing). Format: in vivo, Male CFLP mice. The conditions noted are these: collagen 400 μg/kg i.v. two hours later. How it is done: Male CFLP mice (ca 20 g, n=8) were dosed orally with compound or vehicle (controls) after an overnight fast. Two hours later each mouse received an intravenous dose of collagen (400 μg/kg, pH 6-6.6). Exactly 30 seconds after injection of collagen, each mouse was placed in a chamber of CO2 until respiration ceased. […] Each blood platelet count was expressed as a percent of that obtained in a tail blood sample taken immediately before injection of collagen.

The subject of test [4] is rat ear inflammation. In words: Topical anti-inflammatory activity (croton oil rat ear inflammation). Format: in vivo. Conditions: 1.0 mg/rat ear; 6 hours; activity = significant (5% level) reduction in ear weight vs non-drug treated control. How it is done:
The method used is based on that described by G. Tonelli et al (Endocrinology, 77, 625-634, 1965). An inflammation is induced in the rat ear by the application of 50 μl of a 1% solution of croton oil in tetrahydrofuran, test compounds being dissolved in the irritant vehicle. After 6 hours the inflammation is assessed by killing the animals and weighing the ears. Topical anti-inflammatory activity of a compound is generally considered to be shown when a significant (5% level) reduction in ear weight is seem compared to non-drug treated control.

Where [5] appears, read: read-out: Heart Rate (percentage of the maximum response due to salbutamol).
Setting [6] is: read-out: Heart Tension (percentage of the maximum response due to salbutamol).
Where [7] appears, read: 10 μg added to perfusate (salbutamol dose not given), read-out: Heart Rate (percentage of the maximum response due to salbutamol).
Where [8] appears, read: 10 μg added to perfusate (salbutamol dose not given), read-out: Heart Tension (percentage of the maximum response due to salbutamol).
Where [9] appears, read: dose 1 μ moles/kg po, 2 hour period after glucose 1 g/kg s.c.

Structures can show the parent of a compound that is named as a salt. Where two headings read alike, the source gives them in different places.

As to `COc1ccccc1CC(C)NCC(O)c1cccc(Cl)c1` (stereo not shown) [Example 24, N-[2-(2-Methoxyphenyl)-1-methylethyl]-2-hydroxy-2-(3-chlorophenyl)ethanamine], the inhibition in vivo at 5 µmol/kg in test [1] (po, 2 h) amounted to 27%.
Turning to `COc1ccc(C[C@@H](C)NC[C@H](O)c2cccc(Cl)c2)cc1F` (relative stereo) [Example 4, N-[2-(3-Fluoro-4-methoxyphenyl)-1-methylethyl]-2-hydroxy-2-(3-chlorophenyl)ethanamine hydrobromide-(RR,SS) diastereoisomer], the inhibition in vivo at 1 µmol/kg in test [1] (po, 2 h) is 42%.
Still for that read-out and setting: next, `COc1ccc(CC(C)NCC(O)c2cccc(Cl)c2F)cc1` (stereo not shown) [Example 9, N-[2-(4-Methoxyphenyl)-1-methylethyl]-2-hydroxy-2-(3-chloro-2-fluorophenyl)ethanamine]: 40%; `COc1ccc(C[C@H](C)NC[C@H](O)c2cccc(Cl)c2)cc1F` (relative stereo) [Example 15, N-[2-(3-Fluoro-4-methoxyphenyl)-1-methylethyl]-2-hydroxy-2-(3-chlorophenyl)ethanamine-(RS,SR) diastereoisomer]: 19%.
Take `COc1ccc(CCC(C)(C)NCC(O)c2cccc(Cl)c2)cc1` (stereo not shown) [Example 16, N-[3-(4-Methoxyphenyl)-1,1-dimethylpropyl]-2-hydroxy-2-(3-chlorophenyl)ethanamine]: in test [1] (dose 50 μ moles/kg po, 2 hour period after glucose 1 g/kg s.c.), the inhibition in vivo at 50 µmol/kg came out at 21%.
As to `COc1ccc(CC(C)NCC(O)c2cccc(Br)c2)cc1` (stereo not shown) [Example 8, N-[2-(4-Methoxyphenyl)-1-methylethyl]-2-hydroxy-2-(3-bromophenyl)ethanamine], the inhibition in vivo at 1 µmol/kg in test [1] (po, 2 h) worked out at 30%.
With `CC(Cc1ccc(O)cc1)NCC(O)c1cccc(Cl)c1` (stereo not shown) [Example 2, N-[2-(4-Hydroxyphenyl)-1-methylethyl]-2-hydroxy-2-(3-chlorophenyl)ethanamine], the Emax came to 14% in test [2] (setting [5]) and 26% in test [2] (setting [6]). The “% INHIBITION OF RESPONSE TO COLLAGEN” value in test [3] (dose 5 μmol/kg po) was 40%. The inhibition in vivo at 1 µmol/kg in test [1] (po, 2 h) was 47%.
On to `CC(Cc1ccc(OCc2ccccc2)cc1)NCC(O)c1cccc(Cl)c1` (stereo not shown) [Example 1, N-[2-(4-Benzyloxyphenyl)-1-methylethyl]-2-hydroxy-2-(3-chlorophenyl)ethanamine], for which the Emax in test [2] (setting [7]) is 0%; in test [2] (setting [8]), 7%. Moreover, in test [1] (setting [9]), the inhibition in vivo at 1 µmol/kg is 36%.
As to `CC(Cc1ccc(OC(C)C)cc1)NCC(O)c1cccc(Cl)c1` (stereo not shown) [Example 11, N-[2-(4-Isopropoxyphenyl)-1-methylethyl]-2-hydroxy-2-(3-chlorophenyl)ethanamine], the inhibition in vivo at 0.2 µmol/kg in test [1] (po, 2 h) was determined as 12.5%.
In the case of `COc1ccc(CC(C)NCC(O)c2cccc(Cl)c2)cc1OC` (stereo not shown) [Example 19, N-[2-(3,4-Dimethoxyphenyl)-1-methylethyl]-2-hydroxy-2-(3-chlorophenyl)ethanamine], the inhibition in vivo at 2.5 µmol/kg in test [1] (po, 2 h) was 21%.
Turning to `CC(=O)Oc1ccccc1C(=O)O` [Aspirin, reference compound], the “% INHIBITION OF RESPONSE TO COLLAGEN” value in test [3] (dose 600 μmol/kg po) is 33%.
In the case of `COc1ccc(CC(C)NCC(O)c2cccc(Cl)c2)cc1F` (stereo not shown) [Example 3, N-[2-(3-Fluoro-4-methoxyphenyl)-1-methylethyl]-2-hydroxy-2-(3-chlorophenyl)ethanamine], the Emax in test [2] (setting [5]) amounted to 0%; in test [2] (setting [6]), 36%. For the same compound, in test [1] (po, 2 h), the inhibition in vivo at 1 µmol/kg came to 46%.
As to `COc1ccc(C[C@H](C)NC[C@H](O)c2cccc(Cl)c2)cc1OC` (relative stereo) [Example 20, N-[2-(3,4-Dimethoxyphenyl)-1-methylethyl]-2-hydroxy-2-(3-chlorophenyl)ethanamine-(RS,SR) diastereoisomer], the inhibition in vivo at 2.5 µmol/kg in test [1] (po, 2 h) came to 34%.
Same read-out and setting: next, `CC(Cc1ccc(OC2CCCCC2)cc1)NCC(O)c1cccc(Cl)c1` (stereo not shown) [Example 21, N-[2-(4-Cyclohexyloxyphenyl)-1-methylethyl]-2-hydroxy-2-[3-chlorophenyl)ethanamine hydrochloride]: 53%.
Regarding `COc1ccc(C[C@@H](C)NC[C@H](O)c2cccc(Cl)c2)cc1` (relative stereo) [Example 6, N-[2-(4-Methoxyphenyl)-1-methylethyl]-2-hydroxy-2-(3-chlorophenyl)ethanamine hydrobromide-(RR,SS) diastereoisomer], in test [1] (po, 2 h), the inhibition in vivo at 0.5 µmol/kg amounted to 30% and the inhibition in vivo at 1 µmol/kg was determined as 40%.
On to `COc1cccc(CC(C)NCC(O)c2cccc(Cl)c2)c1` (stereo not shown) [Example 23, N-[2-(3-Methoxyphenyl)-1-methylethyl]-2-hydroxy-2-(3-chlorophenyl)ethanamine hydrochloride], for which the inhibition in vivo at 2.5 µmol/kg in test [1] (po, 2 h) is 22%.
Take `CCCCCCCCCCOc1ccc(CC(C)NCC(O)c2cccc(Cl)c2)cc1` (stereo not shown) [Example 13, N-[2-(4-^n Decyloxyphenyl)-1-methylethyl]-2-hydroxy-2-(3-chlorophenyl)ethanamine]: in test [1] (setting [9]), the inhibition in vivo at 1 µmol/kg worked out at 22%.
For `COc1ccc(CC(C)NCC(O)c2cccc(Cl)c2)cc1C` (stereo not shown) [Example 18, N-[2-(4-methoxy-3-methylphenyl)-1-methylethyl]-2-hydroxy-2-(3-chlorophenyl)ethanamine], in test [1] (po, 2 h), the inhibition in vivo at 2.5 µmol/kg amounted to 58%.
As to `CCCCCOc1ccc(CC(C)NCC(O)c2cccc(Cl)c2)cc1` (stereo not shown) [Example 12, N-[2-(4-^n Pentyloxyphenyl)-1-methylethyl]-2-hydroxy-2-(3-chlorophenyl)ethanamine], in test [1] (po, 2 h), the inhibition in vivo at 0.5 µmol/kg amounted to 36%.
Regarding `COc1ccc(CCNCC(O)c2cccc(Cl)c2)cc1` (stereo not shown) [Example 14, N-[2-(4-Methoxyphenyl)ethyl]-2-hydroxy-2-(3-chlorophenyl)ethanamine], the inhibition in vivo at 1 µmol/kg in test [1] (setting [9]) was 39%.
For `COc1ccc(C[C@@H](C)NCC(O)c2cccc(Cl)c2)cc1F` (stereo partly drawn) [Example 17, N-[2-(3-Fluoro-4-methoxyphenyl)-1-(R)-1-methylethyl]-2-(R,S)-2-hydroxy-2-(3-chlorophenyl)ethanamine hydrobromide], in test [1] (po, 2 h), the inhibition in vivo at 2.5 µmol/kg was 38%.
As to `CC(Cc1ccc(OCCc2ccccc2)cc1)NCC(O)c1cccc(Cl)c1` (stereo not shown) [Example 22, N-[2-(4-{2-phenylethoxy}phenyl)-1-methylethyl]-2-hydroxy-2-(3-chlorophenyl)ethanamine], the inhibition in vivo at 2.5 µmol/kg in test [1] (dose 2.5 μ moles/kg po, 2 hour period after glucose 1 g/kg s.c.) is 13%.
Turning to `COc1ccc(CC(C)NCC(O)c2cccc(Cl)c2)cc1` (stereo not shown) [Example 5, N-[2-(4-Methoxyphenyl)-1-methylethyl]-2-hydroxy-2-(3-chlorophenyl)ethanamine], in test [4], the “Topical anti-inflammatory ACTIVITY” value is listed as “Active”. In addition, the inhibition in vivo at 1 µmol/kg in test [1] (po, 2 h) was found to be 49%.
Consider `CC(CCc1ccc(O)cc1)NCC(O)c1cccc(Cl)c1` (stereo not shown) [Example 10, N-[3-(4-Hydroxyphenyl)-1-methylpropyl]-2-hydroxy-2-(3-chlorophenyl)ethanamine], for which the “% INHIBITION OF RESPONSE TO COLLAGEN” value in test [3] (dose 5 μmol/kg po) is listed as 40%. The inhibition in vivo at 1 µmol/kg in test [1] (setting [9]) was 47%.
`CC(C)(C)NCC(O)c1ccc(O)c(CO)c1` (stereo not shown) [Salbutamol, salbutamol, reference compound]: the Emax in test [2] (setting [7]) and in test [2] (setting [8]) was 100% in each case.
For `COc1ccc(CC(C)NCC(O)c2cccc(F)c2)cc1` (stereo not shown) [Example 7, N-[2-(4-Methoxyphenyl)-1-methylethyl]-2-hydroxy-2-(3-fluorophenyl)ethanamine], in test [1] (po, 2 h), the inhibition in vivo at 5 µmol/kg was 32%.
